Consider 1 compound from patent EP1982730A1, “Pharmaceutical composition comprising l-carnitine and an antagonist of the membrane adenosine receptors, derivatives and/or pharmaceutically acceptable salts thereof, and their use in the preparation of drugs with non-toxic effect to inhibit the proliferation of neoplastic cells” (Farmacetika Limited, priority 2007, dated 2008).

The test system of assay [1] is peripheral blood mononuclear cells (PBMC) from patients affected by chronic lymphocytic leukemia. Put plainly: PHA-induced cell blast formation / proliferation (BrdU incorporation ELISA) in ex vivo PBMC cultures. The class given is cell-based, human. As to conditions: for % reduction in cell blast formation: PBMC stimulated with PHA 20 ug/mL. The source says:
The protocol for isolation and treatment of cells from patients affected by chronic lymphocytic leukemia comprised the following steps:
• Blood sample taken between 8:00 and 9:30 a.m.; • Blood sample sent to the laboratory to be processed immediately; • Evaluation of the total volume of the blood received to proceed with 1:2 dilution with sterile saline solution; • Isolation of the mononuclear cells performed by layering of the blood on a Ficoll-Paque Plus density gradient at a ratio of 1:3, ensuring that the two phases remain separate; • Centrifugation for 40 minutes at 1800 rpm at room temperature; • Recovery of the PBMC layers in the interface between the Ficoll and the plasma; • Washing in saline solution to eliminate residual Ficoll centrifuging at 1200 rpm for 7 minutes at 4°C; • Washing in RPM1 1640 medium, centrifuging at 1200 rpm for 7 minutes at 4°C; • Pellet suspension in complete medium, i.e. RPM1 1640 with the addition of L-glutamine 4mM, penicillin at 50U/ml, streptomycin […] and with 10% of FBS (fetal bovine serum); • Preparation of a 10% cell suspension with Trypan Blue dye and counting of cells under the microscope with Burker camera; cell vitality is also checked using the dye exclusion test; • Counting of the total number of cells and adjustment of the cell concentration to the required value.
The cells thus isolated were cultured in the complete culture medium, and a culture was prepared placing 1 mL of cell suspension in a 5 mL polypropylene […] (Falcon) to study cytokine expression and production, and 100 microL in each microplate well. To induce cell blast formation, mitogen phytohemagglutinin (PHA) (20 ug/mL (Pharmacia) selective for T-lymphocytes was added.
The control culture was prepared without adding any mitogenic substance.
The substance to be tested, i.e. L-carnitine and L-carnitine + suramin, at the desired concentration, was added both to cultures with and to those without mitogen. The cultures were incubated in an incubator at 37°C, in a humidified environment with 5% carbon dioxide added.
Evaluation of cell proliferation and therefore of DNA synthesis by isolated and cultured PBMC was performed after stimulation with mitogen and using the Biotrak ELISA system (Amersham Biosciences Europe GmbH, Milan, Italy), based on the measure of incorporation of 5-bromo-2-deoxyuridine (BrdU), pyrimidine analog, into the newly synthesized DNA. 18 hours before the end of incubation 10 microl of culture medium containing BrdU at a final concentration of 10 micromol/L were added to the cultures. At the end of incubation the culture medium was removed by centrifuging the plates at 300 rpm for 10 minutes. Subsequently, the plates were kept in an oven at 60°C for one hour. This was followed by two incubations of 30 minutes each, first in the presence of a fixative required for cell fixation and DNA denaturation, then in the presence of a blocking buffer. After addition of the anti-BrdU antibody, combined with the enzyme peroxidase, the plates were incubated for 90 minutes, after which three washes of 5 minutes each were performed, using PBS. The substrate used for the colorimetric reaction consisted of 3,3',5,5'-tetramethylbenzidine. The reaction was blocked after 15 minutes with H2SO4 1M and the optical density was measured at a wavelength of 450 nanometers, using a plate reader spectrophotometer. The PBMC proliferation values in the different wells were expressed as optical density from which the optical density recorded in the control wells without BrdU was subtracted.

Assay [2] relates to human peripheral blood mononuclear cells (PBMCs) in healthy volunteers. As to conditions: lymphocytes from healthy volunteers stimulated with PHA; cited from earlier work.

For the compound `C[N+](C)(C)C[C@H](O)CC(=O)[O-]` [Carnitine, L-carnitine], the “% reduction in cell blast formation” value in assay [1] (Patient 1, I.S. 1.9) is 30%; in assay [1] (Patient 2, I.S. 3.4) it was 65%; in assay [1] (Patient 3, I.S. 4.4), 40%; in assay [1] (Patient 4, I.S. 1.6), 24.4%; in assay [1] (Patient 5, I.S. 2.3) it was 16.5%. Besides, the “proliferation induced with PHA” value in assay [1] (all patients, summary in words) is given as “reduces the proliferation induced with PHA in all patients”. Moreover, the “blastogenesis of T lymphocytes caused by phytohemagglutinin (PHA)” value in assay [2] is given as “inhibits, in a dose-dependent manner”.
